# Experimental data: ChEMBL document CHEMBL1123299, “New antiarrhythmic agents. 2,2,5,5-Tetramethyl-3-pyrroline-3-carboxamides and 2,2,5,5-tetramethylpyrrolidine-3-carboxamindes” (J Med Chem, 1986)
# How the values were obtained:
# Rattus norvegicus [1] = experiment: Incidence of arrhythmias in rats after a intravenal administration at 4 mg/kg, expressed as no. of positive cases out of no. of tested cases (10); assay type: functional
# [2] = Acute toxicity in secondary evaluation when administered intravenously (iv) against aconitine-induced arrhythmias in anesthetized rats..parenthesis indicates 95%CL; assay type: organism-based; settings: rat, in vivo
# Cavia porcellus [3] = experiment: Amount of ouabain needed for production of ventricular arrhythmias that causes death in guinea pig by cardiac arrest at a dose of 1 mg/kg iv given 5 min prior; assay type: functional, Cardiac ventricle
# Cavia porcellus [4] = experiment: Amount of ouabain needed for production of ventricular fibrillation at a dose of 1 mg/kg (iv given 5 min prior) in guinea pig; assay type: functional, Cardiac ventricle
# Rattus norvegicus [5] = experiment: Tested for incidence of arrhythmias in rats after a intravenal administration of 0.5 mg/kg expressed as no. of positive cases out of no. of tested cases (10); assay type: functional
# Cavia porcellus [6] = experiment: Amount of ouabain needed for production of ventricular extra-systoles at a dose of 1 mg/kg (iv given 5 min prior) in guinea pig; assay type: functional, Cardiac ventricle
# [7] = Acute toxicity determined after intravenal administration in mice; assay type: organism-based; settings: mouse, in vivo, iv
# Rattus norvegicus [8] = experiment: Effective dose against aconitine-induced arrhythmia after intravenal administration in anesthetized rats; assay type: functional
# Rattus norvegicus [9] = organism: Rattus norvegicus; experiment: Relative potency with reference to quinidine; assay type: functional
# Rattus norvegicus [10] = experiment: Tested for incidence of arrhythmias in rats after a intravenal administration of 2 mg/kg expressed as no. of positive cases out of no. of tested cases (10); assay type: functional
# Cavia porcellus [11] = experiment: Amount of ouabain needed for production of ventricular extra-systoles at a dose of 4 mg/kg (iv given 5 min prior) in guinea pig; assay type: functional, Cardiac ventricle
# Cavia porcellus [12] = experiment: Amount of ouabain needed for production of ventricular fibrillation at a dose of 4 mg/kg (iv given 5 min prior) in guinea pig; assay type: functional, Cardiac ventricle
# Cavia porcellus [13] = experiment: Amount of ouabain needed for production of ventricular arrhythmias that causes death in guinea pig by cardiac arrest at a dose of 4 mg/kg iv given 5 min prior; assay type: functional, Cardiac ventricle
# Rattus norvegicus [14] = experiment: Tested for incidence of arrhythmias in rats after a intravenal administration of 1 mg/kg expressed as no. of positive cases out of no. of tested cases (10); assay type: functional
# [15] = (§1) Acute toxicity in secondary evaluation when administered intravenously (iv) against aconitine-induced arrhythmias in anesthetized rats; assay type: organism-based; settings: rat, in vivo
# Rattus norvegicus [16] = experiment: (§2) Acute toxicity in secondary evaluation when administered intravenously (iv) against aconitine-induced arrhythmias in anesthetized rats.; assay type: functional, organism-based
# Rattus norvegicus [17] = experiment: as §1; assay type: functional, organism-based
# Rattus norvegicus [18] = experiment: Acute toxicity in secondary evaluation when administered intravenously (iv) against aconitine-induced arrhythmias in anesthetized rats. Relative potency with respect to quinidine.; assay type: functional, organism-based
# [19] = as §2; assay type: organism-based; settings: rat, in vivo
# Rattus norvegicus [20] = experiment: Tested for incidence of arrhythmias in rats after a intravenal administration of 4 mg/kg expressed as no. of positive cases out of no. of tested cases (10); assay type: functional
# Cavia porcellus [21] = experiment: Amount of ouabain needed for production of ventricular extra-systoles at a dose of 2 mg/kg (iv given 5 min prior) in guinea pig; assay type: functional, Cardiac ventricle
# Cavia porcellus [22] = experiment: Amount of ouabain needed for production of ventricular fibrillation at a dose of 2 mg/kg (iv given 5 min prior) in guinea pig; assay type: functional, Cardiac ventricle
# Cavia porcellus [23] = experiment: Amount of ouabain needed for production of ventricular arrhythmias that causes death in guinea pig by cardiac arrest at a dose of 2 mg/kg iv given 5 min prior; assay type: functional, Cardiac ventricle
smiles,measurement,setting,value
Cc1cccc(C)c1NC(=O)C(C)NC(=O)C1=CC(C)(C)N([O])C1(C)C (stereo not drawn),No. of positive cases,Rattus norvegicus [1],0
same,LD50,[2],165 mg/kg
Cc1cccc(C)c1NC(=O)CNC(=O)C1=CC(C)(C)N([O])C1(C)C,No. of positive cases,Rattus norvegicus [1],0
same,LD50,[2],136 mg/kg
Cc1cccc(C)c1OCC(C)NC(=O)C1=CC(C)(C)NC1(C)C (stereo not drawn),Average dose,Cavia porcellus [3],0.3476 mg/kg
same,Average dose,Cavia porcellus [4],0.3166 mg/kg
same,No. of positive cases,Rattus norvegicus [5],10
same,Average dose,Cavia porcellus [6],0.2534 mg/kg
same,LD50,[7],11 mg/kg
same,ED150,Rattus norvegicus [8],0.93 mg/kg
same,Relative potency,Rattus norvegicus [9],12.8
CCc1nc2ccccc2c(=O)n1CCCNC(=O)C1=CC(C)(C)NC1(C)C,Average dose,Cavia porcellus [3],0.316 mg/kg
same,Average dose,Cavia porcellus [4],0.2982 mg/kg
same,Average dose,Cavia porcellus [6],0.2115 mg/kg
same,No. of positive cases,Rattus norvegicus [10],10
same,Relative potency,Rattus norvegicus [9],7
Cc1cccc(C)c1OCC(C)NC(=O)C1=CC(C)(C)N([O])C1(C)C (stereo not drawn),No. of positive cases,Rattus norvegicus [1],0
same,LD50,[2],54 mg/kg
Cc1cccc(C)c1NC(=O)C(C)N (stereo not drawn) [TOCAINIDE],Average dose,Cavia porcellus [11],0.236 mg/kg
same,Average dose,Cavia porcellus [12],0.3581 mg/kg
same,Average dose,Cavia porcellus [13],0.3928 mg/kg
Cc1cccc(C)c1NC(=O)CNCCCNC(=O)C1=CC(C)(C)NC1(C)C,LD50,[7],7.4 mg/kg
same,ED150,Rattus norvegicus [8],0.37 mg/kg
same,No. of positive cases,Rattus norvegicus [14],10
same,Relative potency,Rattus norvegicus [9],32.2
Cc1cccc(C)c1OCC(C)NC(=O)C1CC(C)(C)NC1(C)C (stereo not drawn),No. of positive cases,Rattus norvegicus [5],10
same,LD50,[7],2 mg/kg
same,ED150,Rattus norvegicus [8],0.39 mg/kg
same,Relative potency,Rattus norvegicus [9],30.5
C=CCc1ccc(OC(C)C(=O)NCCCNC(=O)C2=CC(C)(C)NC2(C)C)c(OC)c1 (stereo not drawn),LD50,[7],7.6 mg/kg
same,ED150,Rattus norvegicus [8],0.8 mg/kg
same,No. of positive cases,Rattus norvegicus [14],10
same,Relative potency,Rattus norvegicus [9],14.9
Cc1cccc(C)c1OCC(C)N (stereo not drawn) [MEXILETINE],Average dose,Cavia porcellus [11],0.1855 mg/kg
same,Average dose,Cavia porcellus [12],0.2459 mg/kg
same,Average dose,Cavia porcellus [13],0.2861 mg/kg
CC1(C)C=C(C(=O)NCCCN2C(=O)c3ccccc3C2=O)C(C)(C)N1[O],LD50,[15],187 mg/kg
same,No. of positive cases,Rattus norvegicus [1],0
Cc1cccc(C)c1OCC(C)NC(=O)C1CC(C)(C)N([O])C1(C)C (stereo not drawn),No. of positive cases,Rattus norvegicus [1],6
same,LD50,Rattus norvegicus [16],21 mg/kg
same,ED150,Rattus norvegicus [17],9.2 mg/kg
same,Relative potency,Rattus norvegicus [18],1.3
CC.Cc1cccc(C)c1NC(=O)CNC(=O)C1CC(C)(C)N(O)C1(C)C (stereo not drawn),No. of positive cases,Rattus norvegicus [1],0
same,LD50,[19],> 200 mg/kg
CC1(C)CC(C(=O)NCCCNCc2ccccc2OCc2ccccc2)C(C)(C)N1 (stereo not drawn),LD50,[7],13 mg/kg
same,ED150,Rattus norvegicus [8],0.52 mg/kg
same,No. of positive cases,Rattus norvegicus [14],10
same,Relative potency,Rattus norvegicus [9],22.9
Cc1cccc(C)c1NC(=O)C1=CC(C)(C)NC1(C)C,LD50,[7],6 mg/kg
same,ED150,Rattus norvegicus [8],2.1 mg/kg
same,No. of positive cases,Rattus norvegicus [14],7
same,Relative potency,Rattus norvegicus [9],5.7
CCCc1ccc(OCC(=O)NCCCNC(=O)C2=CC(C)(C)NC2(C)C)c(OC)c1,LD50,[7],12 mg/kg
same,No. of positive cases,Rattus norvegicus [20],10
same,ED150,Rattus norvegicus [8],2.9 mg/kg
same,Relative potency,Rattus norvegicus [9],4.1
C=CCOc1ccccc1CNCCCNC(=O)C1=CC(C)(C)NC1(C)C,Average dose,Cavia porcellus [3],0.3061 mg/kg
same,Average dose,Cavia porcellus [4],0.2802 mg/kg
same,Average dose,Cavia porcellus [6],0.2243 mg/kg
same,LD50,[7],18 mg/kg
same,ED150,Rattus norvegicus [8],1.9 mg/kg
same,No. of positive cases,Rattus norvegicus [10],10
same,Relative potency,Rattus norvegicus [9],6.3
CCN(CC)CC(=O)Nc1c(C)cccc1C [LIDOCAINE],Average dose,Cavia porcellus [11],0.2001 mg/kg
same,Average dose,Cavia porcellus [12],0.2477 mg/kg
same,Average dose,Cavia porcellus [13],0.2702 mg/kg
C=CCc1ccc(OCC(=O)NCCCNC(=O)C2=CC(C)(C)NC2(C)C)c(OC)c1,Average dose,Cavia porcellus [21],0.2266 mg/kg
same,Average dose,Cavia porcellus [22],0.3536 mg/kg
same,No. of positive cases,Rattus norvegicus [20],10
same,Average dose,Cavia porcellus [23],0.3988 mg/kg
same,Relative potency,Rattus norvegicus [9],8.5
CCN(CC)C(=O)COc1c(CNCCCNC(=O)C2=CC(C)(C)NC2(C)C)cccc1OC,LD50,[7],2.1 mg/kg
same,No. of positive cases,Rattus norvegicus [14],1
